Laboratory results from patent EP4752137A1, “NEW COMPOUNDS DERIVED FROM MORIN, METHOD FOR OBTAINING THEM AND THEIR USES” (Universidad de Sevilla, priority 2023, dated 2025).

How the values were obtained:
[1] = Solubility of the isolated crystals; format: physicochemical; conditions: solvents in words
Method: For the preparation of morin oxime, 0.03 g of morin dissolved in 5 mL of MeOH were used, 0.0206 g of hydroxylamine hydrochloride and 0.0206 g of sodium acetate were added. The mixture was left under constant stirring and reflux for 2.5 hours. After this time, the crude product of the reaction was tempered and poured onto wet ice generating a precipitate, which was washed with dichloromethane and methanol obtaining a yellow solid in 60% yield. […] 6.45 dd (J = 8.5; 2.1 Hz). 6.39 d (J = 2.1 Hz). 6.34 d (J = 1.9 Hz). 6.16 d (J = 1.9 Hz). NMR of ^13C δ 102.9. 122.0. 122.0. 144.3. 149.1. 149.4. 152.8. 153.1. 154.7. 155.9. 84.5. 89.5. 95.5. 95.5. 99.5. UV (EtOH) λmax (log ε) 210 (4.6). 265 (4.2). 390 (4.4). The preparation of the compound can be carried out using the above-mentioned method with 0.1 g of morin, 0.07 g of hydroxylamine hydrochloride and 0.07 g of sodium acetate.
For the preparation of morin semicarbazone, 0.03 g of morin dissolved in 5 mL of MeOH was used, 0.0332 g of semicarbazide hydrochloride and 0.0332 g of sodium acetate were added. The mixture was left under constant stirring and reflux for 3 hours. After this time, the crude product of the reaction was tempered and poured onto wet ice generating a precipitate, which was recovered by filtration obtaining a coffee solid in 76% yield. […] 10.71 sa. 9.77 sa. 7.22 d (J= 8.4 Hz). 6.37 d (J= 2.4 Hz). 6.33 dd (J= 8.4; 2.4 Hz). 6.28 d (J= 1.9 Hz). […]

[2] = ABTS antioxidant capacity, Trolox curve as reference control; format: biochemical; conditions: ABTS technique
Method: First, the antioxidant capacity of the compounds was determined directly using the ABTS technique (2,2-azino-bis-3-benzo-thiazoline-6-sulfonic acid) at different concentrations of the compounds (morin and the compounds of Example 1), using as a reference control a curve of increasing concentrations of Trolox. […] Table 1. Antioxidant capacity of compounds

[3] = tested on: IL-6 (Interleukin-6); experiment: IL-6 production by ELISA in UVB-irradiated HaCaT keratinocytes; format: cell-based; conditions: for reduced IL-6 levels: 10 µM (highest concentration tested), 4 h pretreatment, UVB 50 mJ/cm^2, 24 h incubation
Method: For the evaluation of anti-inflammatory activity (Figure 2), HaCaT keratinocytes were pretreated for 4 h with the compounds morin (A), morin oxime obtained in Example 1 (B) and morin semicarbazone obtained in Example 1 (C) (2.5, 5 and 10 µM). They were then irradiated with UVB radiation at 50 mJ/cm^2, incubated for 24 h and IL-6 (Interleukin-6) production was assessed by ELISA. Results were expressed as pg/mL and bars represent ± SEM (n=5). […] Thus, it is worth noting that at the highest concentration tested (10 µM), morin oxime reduced IL-6 levels by 45% (Figure 2B) and morin semicarbazone by 28% (Figure 2C), compared to morin, with which a decrease of only 16% was observed (Figure 2A).
Finally, the combination of morin or the morin semicarbazone derivative from Example 1 with fucoxanthin induced a decrease in IL-6 production at all concentrations tested in a 1:1 proportion. It is worth mentioning that this reduction was more notable with the fucoxanthin+morin semicarbazone mixture at the 5-5 µM and 10-10 µM combinations (42% reduction) (Figure 6C) than with fucoxanthin+morin (38% reduction) (Figure 6B). […] The results were expressed as a percentage with respect to the irradiated control cells and the bars represented mean ± SEM (n = 4).

[4] = UV-vis absorption spectra (molar extinction coefficient); format: physicochemical; conditions: UV-vis 200-500 nm; improvement relative to morin
Source text: As experimental evidence of the improvement in the photoprotective capacity of compounds synthesized in Example 1, a comparison was made of the absorption capacity in the UV-vis range between morin and nitrogen derivatives (Schiff bases).
The tangible improvement with chemical modification for the compounds synthesized in Example 1 is evident by comparing the molar extinction coefficient (ε) values. […] In a further analysis, it can be seen that the εmax of morin oxime is 60% better than that of morin, and εmax of morin semicarbazone is 40% better than that of morin. […] Therefore, an improvement can be achieved in the optimization of active ingredients used in the preparation of compositions, the purpose of which is directed towards photoprotection and a photoabsorbent flavonoid is contemplated in said formulation.

[5] = tested on: ROS; experiment: Intracellular ROS (dichlorodihydrofluorescein-diacetate technique) in UVB-irradiated HaCaT cells; format: cell-based
Method: For the evaluation of the antioxidant activity of morin semicarbazone obtained in Example 1, HaCaT cells were pre-treated with morin and semicarbazone at the selected concentrations for 4 h and then irradiated with UVB radiation at 50 mJ/cm^2. After 45 min, ROS levels were measured using the dichlorodihydrofluorescein-diacetate technique. […] The results were expressed as a percentage with respect to the irradiated cell control and the bars represented mean ± SEM (n=4).
This decrease was slightly greater with the fucoxanthin+morin semicarbazone mixture at the 1.25-1.25 µM and 2.5-2.5 µM combinations (41% reduction) (Figure 5C) than with fucoxanthin+morin (33% and 37% reduction, respectively) (Figure 5B). […] The results were expressed as a percentage with respect to the irradiated control cells and the bars represented mean ± SEM (n = 4).

[6] = fucoxanthin alone, highest concentration tested

Row | Compound | solubility [1] | EC50 [2] | Trolox equivalency (EC50 sample/EC 50 Trolox) [2] | reduced IL-6 levels [3] | εmax better than that of morin [4] | reduced ROS production ([5]; 10 µM, 4 h pretreatment, UVB 50 mJ/cm^2, 45 min, vs irradiated cell control) | ROS levels (result in words) ([5]; all concentrations tested, 4 h pretreatment, UVB 50 mJ/cm^2, 45 min) | IL-6 production reduction [3, 6] | ROS reduction [5, 6]
1 | ON=c1c(O)c(-c2ccc(O)cc2O)oc2cc(O)cc(O)c12 [Morin oxime, 2-(2,4-dihydroxyphenyl)-3,5,7-trihydroxy-4H-chromen-4-one oxime] | soluble in AcOEt, acetone, MeOH, and partially soluble in water | 13.7 ± 0.768 µM | 0.658 | 45% | 60% | – | – | – | –
2 | NC(=O)NN=c1c(O)c(-c2ccc(O)cc2O)oc2cc(O)cc(O)c12 [Morin semicarbazone, 2-(2-(2,4-dihydroxyphenyl)-3,5,7-trihydroxy-4H-chromen-4-ylidene)hydrazine-1-carboxamide] | solubility in AcOEt, acetone, MeOH | 12.3 ± 0.922 µM | 0.590 | 28% | 40% | up to 20% | – | – | –
3 | O=c1c(O)c(-c2ccc(O)cc2O)oc2cc(O)cc(O)c12 [Morin, 2-(2,4-dihydroxyphenyl)-3,5,7-trihydroxy-4H-chromen-4-one] | – | 10.8 ± 2.21 µM | 0.517 | 16% | – | – | failed to reduce ROS levels at any of the concentrations tested | – | –
4 | Cc1c(C)c2c(c(C)c1O)CCC(C)(C(=O)O)O2 (stereo not shown) [Trolox, reference compound] | – | 20.8 ± 0.811 µM | 1 | – | – | – | – | – | –
5 | fucoxanthin [reference compound] | – | – | – | – | – | – | – | 30% | 34%
